One data set concerns the target T1, EphA3 (Homo sapiens, UniProt P29320).
T1 construct: expressed in transfected cells; host or cells: HEK 293
T1 sequence (P29320 21-983): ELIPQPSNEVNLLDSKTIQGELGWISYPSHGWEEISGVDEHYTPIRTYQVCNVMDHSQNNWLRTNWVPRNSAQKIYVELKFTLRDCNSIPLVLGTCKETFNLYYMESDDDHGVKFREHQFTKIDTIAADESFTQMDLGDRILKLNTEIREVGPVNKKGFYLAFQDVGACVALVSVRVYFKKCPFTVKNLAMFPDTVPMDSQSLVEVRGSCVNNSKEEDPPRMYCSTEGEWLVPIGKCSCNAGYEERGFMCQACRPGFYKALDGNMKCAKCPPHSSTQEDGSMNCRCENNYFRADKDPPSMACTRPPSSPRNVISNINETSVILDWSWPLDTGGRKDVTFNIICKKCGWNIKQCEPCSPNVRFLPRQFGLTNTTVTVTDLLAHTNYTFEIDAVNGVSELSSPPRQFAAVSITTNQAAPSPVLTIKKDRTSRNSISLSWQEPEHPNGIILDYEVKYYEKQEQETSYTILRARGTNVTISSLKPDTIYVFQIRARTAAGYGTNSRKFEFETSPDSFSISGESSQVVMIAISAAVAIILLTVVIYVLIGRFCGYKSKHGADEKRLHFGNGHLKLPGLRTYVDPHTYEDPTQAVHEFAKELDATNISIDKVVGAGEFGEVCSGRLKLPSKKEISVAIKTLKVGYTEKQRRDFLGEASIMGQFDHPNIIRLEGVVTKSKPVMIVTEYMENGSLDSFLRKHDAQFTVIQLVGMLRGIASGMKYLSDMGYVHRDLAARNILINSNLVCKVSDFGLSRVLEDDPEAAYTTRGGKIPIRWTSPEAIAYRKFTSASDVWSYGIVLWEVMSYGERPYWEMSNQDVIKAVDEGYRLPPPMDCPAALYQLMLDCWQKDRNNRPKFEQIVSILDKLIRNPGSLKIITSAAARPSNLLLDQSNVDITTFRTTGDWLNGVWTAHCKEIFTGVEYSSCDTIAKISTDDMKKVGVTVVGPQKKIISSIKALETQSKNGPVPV
The experiment in a line: Eph receptor activation in HEK 293 cells overexpressing EphA3. The following applies: HEK 293 cells overexpressing EphA3, compared to EphA2 and EphA4. It counts as cell-based.

A further data set deals with ERK and Akt. Description: ERK and Akt inhibition in LK133A-Vec and LK133A-A2 liver epithelial cells (immunoblot). Type of data set: cell-based, mice. The protocol:
(§1) Cells were plated in 24-well dishes at a density of 100,000 cells/well and grown for 24 hours prior to stimulation with appropriate compounds and ephrins for the given amounts of time. Compounds were prepared in DMSO at 500 times the final concentrations and 0.2% DMSO was used as vehicle control. Following treatment, cells were lysed directly in SDS Gel Loading Buffer and immunoblotted as described previously. Immunoprecipitation and immunofluorescence staining was performed as described. For immunoprecipitation, 300,000 cells/well were plated in 6-well dishes and lysed in modified RIPA Buffer (20 mM Tris-HCl pH 7.4, 20 mM NaF, 150 mM NaCl, 10% glycerol, 0.1% SDS, 0.5% DCA, 2 mM EDTA, 1% Triton X-100) following treatment. Either […] of ephrin-A1-Fc, or […] of EphA2 mouse monoclonal antibody (Clone D7, Millipore) were used, and mouse IgG was used as a negative control for EphA2 IP.
To address this question, we utilized an immortalized liver epithelial cell line, LK133A, isolated from a hepatoma induced by DEN in EphA2 knockout mice. Retroviral vector was used to restore EphA2 expression in these cells (LK133A-A2), and cells transduced with an empty vector were used as control (LK133AVec).

A further data set concerns the target EphA2 (Homo sapiens, UniProt P29317). The experiment in a line: Internalization of endogenous EphA2 in parental MDA-MB-231 cells (immunofluorescence). The conditions noted are these: two hours, 50 μM. It counts as cell-based. The protocol: as §1
Similar to other receptor tyrosine kinases, activation of the EphA2 receptor by its ligand, ephrin-A1, results in receptor internalization and eventual degradation. […] This was first performed using the U373 glioma cell line engineered to overexpress EphA2.

The test system of a further data set is PC-3 cells. Description: Cell rounding analysis. The conditions noted are these: 50 µM, 30 or 60 min. It counts as cell-based, human. From the text:
As we first reported in 2000, EphA2 activation on PC-3 cells by ephrin-A1 induced rapid cell rounding, a phenomenon that is correlated with inhibition of integrin function.

For the next data set, the system named is PC3-DAB2IP KD cells. Description: In vivo metastasis assay, orthotopic PC3-DAB2IP KD prostate xenograft. How it is done:
PC-3 cells (from ATCC) engineered to express both GFP and DAB2IP shRNA were characterized previously. Cells were suspended in serum free medium and 2,000 cells injected directly into the prostate glands of 7 week old NCr athymic nu/nu mice. Three days after injection, mice were divided into two groups, one receiving vehicle alone (5% DMSO/10% Cremophor/PBS) and another 50 mg/kg doxazosin via intraperitoneal injection daily for 10 days. Mice were sacrificed 14 days later and intact primary tumors were imaged under a UV light box with a Digital camera. Lungs were dissected into separate lobes and GFP-expressing metastases were imaged using an inverted fluorescent microscope (Leica). Metastases were enumerated in the two largest lung lobes and placed into size categories based upon their diameters, measured in number of cells (1-10 cells). Total metastatic burden was calculated in each mouse using the following equation: [burden=Σ (# of foci×focus diameter)].
Historically, studies of prostate cancer metastasis in the preclinical setting have been hampered by the lack of human cell lines that can produce significant metastasis in a reproducible manner. […] We took advantage of this newly established model system to test how doxazosin can affect metastasis of prostate cancer. To this end, PC3-DAB2IP KD cells were injected orthotopically into the prostate glands of nude mice. Three days later, recipient mice were subject to systemic treatment by daily i.p. injection of either vehicle control, or 50 mg/kg doxazosin for 10 days. Since these cells also expressed green fluorescent protein (GFP), freshly dissected primary tumors could be readily visualized in a GFP light box (FIG. 7A top panels), and distal metastases to lungs and lymph nodes could be observed and quantified under a fluorescent microscope (FIG. 7A lower panels).
Next, we determined whether doxazosin treatment might impact overall survival. Nude mice orthotopically implanted with the PC3-DAP2IP KD cells were treated for 10 days with either doxazosin, or vehicle control and monitored for survival.

The test system of data set [1] is DU145 and PC-3 cell xenografts. The conditions noted are these: previously shown, independent of α1-adrenoreceptor; cited from earlier work.
The mark [2] stands for this setting: nude mice, 50 mg/kg i.p. daily for 10 days.

Here are results for one compound from patent publication US11814372B2, “Agonists of EPHA and their uses” (CASE WESTERN RESERVE UNIVERSITY, priority 2017, dated 2023).

Entries after “also recorded” stand apart in the source; their conditions may differ.

Sequence of EphA2 (P29317 24-976): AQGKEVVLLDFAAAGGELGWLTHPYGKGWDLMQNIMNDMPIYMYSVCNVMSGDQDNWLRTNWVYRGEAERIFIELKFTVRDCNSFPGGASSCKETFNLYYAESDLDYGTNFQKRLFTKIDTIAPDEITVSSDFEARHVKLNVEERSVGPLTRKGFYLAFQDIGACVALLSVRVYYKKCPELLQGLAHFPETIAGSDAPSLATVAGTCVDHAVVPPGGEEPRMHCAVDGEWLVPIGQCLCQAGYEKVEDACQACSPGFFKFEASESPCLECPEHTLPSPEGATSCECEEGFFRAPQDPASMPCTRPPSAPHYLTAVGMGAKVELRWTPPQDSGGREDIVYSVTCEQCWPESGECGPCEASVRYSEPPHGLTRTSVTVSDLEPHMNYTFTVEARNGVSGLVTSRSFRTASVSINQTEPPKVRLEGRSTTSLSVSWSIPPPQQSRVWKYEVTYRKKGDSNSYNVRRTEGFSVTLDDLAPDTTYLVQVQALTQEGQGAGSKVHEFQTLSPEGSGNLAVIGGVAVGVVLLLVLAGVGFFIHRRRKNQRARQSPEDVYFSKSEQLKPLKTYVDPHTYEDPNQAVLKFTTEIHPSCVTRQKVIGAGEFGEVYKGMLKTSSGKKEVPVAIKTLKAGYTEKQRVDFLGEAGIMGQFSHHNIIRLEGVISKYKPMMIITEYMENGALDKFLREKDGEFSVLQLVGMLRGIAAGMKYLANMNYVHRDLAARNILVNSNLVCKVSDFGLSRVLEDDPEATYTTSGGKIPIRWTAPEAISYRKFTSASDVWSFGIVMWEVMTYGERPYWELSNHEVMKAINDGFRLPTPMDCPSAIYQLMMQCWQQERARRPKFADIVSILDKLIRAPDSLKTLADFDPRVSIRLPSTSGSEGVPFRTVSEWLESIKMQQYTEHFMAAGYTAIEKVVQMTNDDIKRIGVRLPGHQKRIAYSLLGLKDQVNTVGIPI
Procedure for EphA3: Cells were plated in 24-well dishes at a density of 100,000 cells/well and grown for 24 hours prior to stimulation with appropriate compounds and ephrins for the given amounts of time. Compounds were prepared in DMSO at 500 times the final concentrations and 0.2% DMSO was used as vehicle control. Following treatment, cells were lysed directly in SDS Gel Loading Buffer and immunoblotted as described previously. […] For this purpose, HEK 293 cell lines overexpressing EphA1, EphA2, EphA3, EphA4, and EphB3 kinases were utilized.

Turning to `COc1cc2nc(N3CCN(C(=O)C4COc5ccccc5O4)CC3)nc(N)c2cc1OC` (centres unmarked) [doxazosin], the “EphA3 activation, Eph receptor panel” value on EphA3 was “weak”. For the same compound, in the data set with ERK and Akt (LK133A-A2 cells), the “ERK and Akt inhibition after reintroduction of EphA2 expression” value was “restored ERK and Akt inhibition”. Further, the “inhibition of ERK and Akt activities in the absence of EphA2” value with ERK and Akt (LK133A-Vec cells (EphA2 knockout, empty vector)) is “neither doxazosin nor ephrin-A1-Fc was able to inhibit ERK and Akt activities; also recorded: notable increase in ERK and Akt activation”. The “internalization of endogenous EphA2” value at EphA2 is “significant internalization of the endogenous EphA2”. Also, in the data set with PC-3 cells, the cell rounding result is “caused rounding of PC-3 cells”. In the data set on PC3-DAB2IP KD cells (at 27 days after cell implantation, treated for 10 days, vehicle 30%), the overall survival is on record as 70%. In addition, in the data set with PC3-DAB2IP KD cells (setting [2]), the behavioral abnormalities entry was “nor were there any signs of behavioral abnormalities”, the “body weight compared with vehicle control” value is “no changes in body weight”, the “number of lung metastases compared to vehicle control” value is on record as “significant reduction in the number of lung metastases” and the “reduction in primary tumor sizes” value is recorded as “the difference was not statistically significant”. In addition, in the data set on PC3-DAB2IP KD cells (setting [2]), the “sizes of lung metastases compared to vehicle-treated mice” value was “significantly smaller”; the “total metastatic burden (numbers and sizes of metastases)” value is reported as “even more significantly reduced”; the “tumor cell dissemination to local lymph nodes” value is given as “reduced, but not to a significant extent”. Also, the “subcutaneous growth of DU145 and PC-3 cell xenografts” value in data set [1] is “moderately decrease subcutaneous growth”.
